# Reference: ChEMBL document CHEMBL5724914, “Linking interpersonal differences in gut microbiota composition and drug biotransformation activity” (2024)
# Assays:
# [1] = The drug is tested on Z-013 corresponding to rabbit gut metagenome with ENA study accession number: PRJEB37062 and ENA sample accession number: ERS12561813 for biotransformation under anaerobic condition. The drug concentrations were measured over 9 timepoints collected between 0 and 24 hours of incubation by liquid-chromatography-coupled mass spectrometry (LC–MS); details: 2 µM
# [2] = The drug is tested on Z-029 corresponding to rat gut metagenome with ENA study accession number: PRJEB37062 and ENA sample accession number: ERS12561828 for biotransformation under anaerobic condition. The drug concentrations were measured over 9 timepoints collected between 0 and 24 hours of incubation by liquid-chromatography-coupled mass spectrometry (LC–MS); details: 2 µM
# [3] = human gut metagenome, 24 h, 2 µM
# [4] = The drug is tested on Z-022 corresponding to mouse gut metagenome with ENA study accession number: PRJEB37062 and ENA sample accession number: ERS12561821 for biotransformation under anaerobic condition. The drug concentrations were measured over 9 timepoints collected between 0 and 24 hours of incubation by liquid-chromatography-coupled mass spectrometry (LC–MS); details: 2 µM
# [5] = human gut metagenome, 24 h, 2 µM; remark: listed apart in the source
# [6] = human gut metagenome, 24 h, 2 µM; remark: listed apart in the source
# [7] = The drug is tested on Z-012 corresponding to metagenome with ENA study accession number: PRJEB37062 and ENA sample accession number: ERS12561812 for biotransformation under anaerobic condition. The drug concentrations were measured over 9 timepoints collected between 0 and 24 hours of incubation by liquid-chromatography-coupled mass spectrometry (LC–MS); details: 2 µM
# [8] = The drug is tested on Z-001 corresponding to mouse gut metagenome with ENA study accession number: PRJEB37062 and ENA sample accession number: ERS12561801 for biotransformation under anaerobic condition. The drug concentrations were measured over 9 timepoints collected between 0 and 24 hours of incubation by liquid-chromatography-coupled mass spectrometry (LC–MS); details: 2 µM
# [9] = The drug is tested on Z-025 corresponding to rabbit gut metagenome with ENA study accession number: PRJEB37062 and ENA sample accession number: ERS12561824 for biotransformation under anaerobic condition. The drug concentrations were measured over 9 timepoints collected between 0 and 24 hours of incubation by liquid-chromatography-coupled mass spectrometry (LC–MS); details: 2 µM
# [10] = human gut metagenome, 24 h, 2 µM; remark: listed apart in the source
# [11] = The drug is tested on Z-011 corresponding to mouse gut metagenome with ENA study accession number: PRJEB37062 and ENA sample accession number: ERS12561811 for biotransformation under anaerobic condition. The drug concentrations were measured over 9 timepoints collected between 0 and 24 hours of incubation by liquid-chromatography-coupled mass spectrometry (LC–MS); details: 2 µM
# [12] = human gut metagenome, 24 h, 2 µM; remark: listed apart in the source
# [13] = human gut metagenome, 24 h, 2 µM; remark: listed apart in the source
# [14] = human gut metagenome, 24 h, 2 µM; remark: listed apart in the source
# [15] = human gut metagenome, 24 h, 2 µM; remark: listed apart in the source
# [16] = human gut metagenome, 24 h, 2 µM; remark: listed apart in the source
# [17] = The drug is tested on WLS-310 corresponding to human gut metagenome with ENA study accession number: PRJEB37062 and ENA sample accession number: ERS12561785 for biotransformation under anaerobic condition. The drug concentrations were measured over 9 timepoints collected between 0 and 24 hours of incubation by liquid-chromatography-coupled mass spectrometry (LC–MS); details: 2 µM
# [18] = human gut metagenome, 24 h, 2 µM; remark: listed apart in the source
# [19] = The drug is tested on Z-018 corresponding to pig gut metagenome with ENA study accession number: PRJEB37062 and ENA sample accession number: ERS12561817 for biotransformation under anaerobic condition. The drug concentrations were measured over 9 timepoints collected between 0 and 24 hours of incubation by liquid-chromatography-coupled mass spectrometry (LC–MS); details: 2 µM
# [20] = The drug is tested on WLS-077 corresponding to human gut metagenome with ENA study accession number: PRJEB37062 and ENA sample accession number: ERS12561750 for biotransformation under anaerobic condition. The drug concentrations were measured over 9 timepoints collected between 0 and 24 hours of incubation by liquid-chromatography-coupled mass spectrometry (LC–MS); details: 2 µM
# Further: call rule not given here.
Compound,Bacterial Biotransformation [1],Bacterial Biotransformation [2],Bacterial Biotransformation [3],Bacterial Biotransformation [4],Bacterial Biotransformation [5],Bacterial Biotransformation [6],Bacterial Biotransformation [7],Bacterial Biotransformation [8],Bacterial Biotransformation [9],Bacterial Biotransformation [10],Bacterial Biotransformation [11],Bacterial Biotransformation [12],Bacterial Biotransformation [13],Bacterial Biotransformation [14],Bacterial Biotransformation [15],Bacterial Biotransformation [16],Bacterial Biotransformation [17],Bacterial Biotransformation [18],Bacterial Biotransformation [19],Bacterial Biotransformation [20]
CCN(C(C)=O)c1cccc(-c2ccnc3c(C#N)cnn23)c1 [ZALEPLON],Compound NOT metabolized,Compound NOT metabolized,Compound metabolized,Compound NOT metabolized,Compound metabolized,Compound metabolized,Compound metabolized,Compound NOT metabolized,Compound metabolized,Compound metabolized,Compound NOT metabolized,Compound metabolized,Compound metabolized,Compound metabolized,Compound NOT metabolized,Compound NOT metabolized,Compound metabolized,Compound metabolized,Compound metabolized,Compound metabolized
C=C[C@H]1CN2CC[C@H]1C[C@H]2[C@H](O)c1ccnc2ccc(OC)cc12.C=C[C@H]1CN2CC[C@H]1C[C@H]2[C@H](O)c1ccnc2ccc(OC)cc12.O.O.O=S(=O)(O)O [QUININE SULFATE],Compound NOT metabolized,Compound NOT metabolized,Compound NOT metabolized,Compound NOT metabolized,Compound metabolized,Compound metabolized,Compound NOT metabolized,Compound NOT metabolized,Compound NOT metabolized,Compound NOT metabolized,Compound NOT metabolized,Compound NOT metabolized,Compound metabolized,Compound NOT metabolized,Compound NOT metabolized,Compound metabolized,Compound metabolized,Compound NOT metabolized,Compound NOT metabolized,Compound NOT metabolized
CC(C)(C)NCC(O)COc1cccc2c1CC(O)C(O)C2 (stereo not given) [NADOLOL],Compound NOT metabolized,Compound NOT metabolized,Compound NOT metabolized,Compound metabolized,Compound NOT metabolized,Compound metabolized,Compound NOT metabolized,Compound metabolized,Compound NOT metabolized,Compound NOT metabolized,Compound metabolized,Compound NOT metabolized,Compound NOT metabolized,Compound NOT metabolized,Compound NOT metabolized,Compound NOT metabolized,Compound metabolized,Compound NOT metabolized,Compound NOT metabolized,Compound metabolized
